Reference: US11117919B2, “Icariside compound, preparation method thereof, and application thereof” (FOSHAN GOLDEN HEALTH TECHNOLOGY CO., LTD., priority 2015, dated 2021)

Tested on: human peripheral blood mononuclear cells (PBMCs)
Assay: Immunological screening model: IFN-γ produced in human PBMCs
Assay type: cell-based
Excerpt: The present inventors have long been researching the active components in traditional Chinese herbal medicine and their applications in immunotherapy. The present inventors have established an immunological test model based on determination of the level of IFN-γ produced in human peripheral blood mononuclear cells (PBMCs). By this model, compounds having promotion (or inhibition) effects on human peripheral blood mononuclear cells (PBMCs) to produce γ-interferon can be screened out from chemical components from various sources including traditional Chinese herbal medicine, medicinal plants and so on. Since the γ-Interferon is an important protein (cytokine) in human body's immune system to resist attacks from diseases, its production level in body directly relates to the body's immunity. Therefore, the model is an ideal tool to screen and find functional pharmaceuticals for improving human immunity.
In addition, all the results and achievements of the present invention are based on the very effective screening model established by the present inventors. Therefore, a further objective of the present invention is to provide an experimental model for screening substances having impacts (either enhance or inhibit) on immunity. […] Finally, by using ELISA techniques, the levels of IFN-γ produced in the culture were measured at different incubation time. […]

SMILES: COc1ccc(-c2oc3c(CC=C(C)C)c(O[C@@H]4O[C@H](CO)[C@@H](O)[C@H](O)[C@H]4O)cc(O)c3c(=O)c2O)cc1 [icariside I]
- effect in promoting PBMCs to generate IFN-γ: significant effect
